The values that follow come from patent publication US10632172B2, “Injectable self-assembling antibacterial peptide hydrogels” (New Jersey Institute of Technology, priority 2018, dated 2020).

Where “and” joins values, the source holds several entries; their conditions need not be identical. Identical values can stand only once. Entries after “also recorded” stand apart in the source; their conditions may differ.

The nature of data set [1]: Rheology of CASP hydrogels/solutions (strain sweep, shear recovery). The format is physicochemical. As to conditions: for storage modulus (G') at 1% strain: 2% w/v hydrogels/solutions. The procedure:
For rheology, 2% peptide hydrogel was transferred between a plate and a 4 mm parallel plate geometry with a gap of 350 μm, on a Malvern Kinexus Ultra+rheometer. Strain sweep (0.1-100% strain at 1 Hz) and shear recovery (1% strain at 1 Hz for 5 min, 100% strain at 1 Hz for 1 min, and 1% strain at 1 Hz for 5 min) were carried out.

Data set [2] in a line: Hydrogel formation after addition of 10xPBS to 2% (w/v) peptide solution in 298 mM sucrose. In kind it is physicochemical. As to conditions: 2% (w/v) in 298 mM sucrose, 10xPBS pH 7 added 1:9. How it is done:
In one example, after purification and lyophilization, the peptides are dissolved in 298 mM sucrose solution to prepare 2% (w/v) solutions. After the addition of 10×PBS (pH 7) to the peptide solution (in a 1:9 volumetric ratio), hydrogels form within seconds. Biofilms of the gram-negative bacteria Pseudomonas putida are grown on agar plates and CASP solutions are applied on top of established biofilms to test their ability to disrupt the bacterial colony. Cationic amphiphilic peptide nanofibers show noticeable bactericidal effect on biofilms. This effect is correlated with the terminal charge on the cationic nanofibers, consistent with initial hypothesis contained herein that higher terminal charge facilitates the association of the peptide nanofibrils with the bacterial cell membrane. The effect of the antibacterial hydrogel is localized on the biofilm.
In this example, a series of CASPs was explored. The series of CASPs were synthesized through solid-phase peptide synthesis and verified by mass spectrometry as shown in FIGS. 3A-3D. After purification and lyophilisation, the peptides were dissolved in 298 mM sucrose solution to prepare 2% (w/v) solutions. After the addition of 10×PBS (pH 7) to the peptide solution (in a 1:9 volumetric ratio), CASP-K2 through CASP-K6 formed hydrogels within seconds.

Data set [3] relates to Pseudomonas aeruginosa PAO1. Nature of the data set: Colony disruption on agar plates (inhibition zones, SEM). In kind it is cell-based. As to conditions: P. aeruginosa PAO1 on agar, peptide hydrogels/solutions applied, overnight. The procedure: Colonies of the gram-negative bacteria Pseudomonas aeruginosa PAO1 were grown on agar and CASP solutions were applied to assess their colony-disruption ability (FIGS. 9A-9E). Cationic amphiphilic peptide nanofibers show noticeable bactericidal effect. This effect was correlated with the terminal charge on the cationic nanofibers (FIGS. 9C-9D), consistent with the hypothesis that a greater terminal charge facilitates the association of the peptide nanofibrils with the bacterial cell membrane.
To test the efficacy of CASPs against bacterial colonies, Pseudomonas aeruginosa (PAO1) were cultured on agar plates and peptide hydrogels/solutions were placed on these bacteria cultures during the exponential growth phase to evaluate the antibacterial properties. The experiment to test antibacterial activity of the peptides was carried out over 4 days. On day 1, an agar plate was streaked with the bacteria using an inoculating loop. The streaked plate was then kept in an incubator to allow for bacterial growth overnight. Day 2 consisted of inoculating one colony of bacteria from the streaked plate into a glass tube filled with 5 mL of the Luria-Bertani (LB) broth. The tube is then set aside to allow for the colony to grow overnight in the LB broth. The following day the agar plates were labeled with the type of bacteria, concentration used, treatment being tested, and the date. […]

A further data set deals with NIH 3T3 fibroblasts. Kind of data set: In vitro cytocompatibility (LIVE/DEAD viability/cytotoxicity kit). In kind it is cell-based. As to conditions: 0.002% peptide in media, day 3. How it is done: For in vitro cytocompatibility tests, cultured were NIH 3T3 fibroblasts in DMEM supplemented with 10% FBS and 1× penicillin-streptomycin in T75 flasks. After the fibroblasts reached confluency, they were seeded in a 96-well plate at 2,500 cells/well. 0.002% CASP-K6 (n=6) and a control (media with sucrose and phosphate-buffered saline (PBS), n=6) were tested. For the former, the peptide was supplemented in the media, and for the control, 298 mM sucrose and PBS was supplemented to the media. The sucrose and PBS supplemented in the media control corresponded to the quantities required to formulate CASP-K6. Media was changed daily for 3 days and cytocompatibility was assessed on day 3 using a LIVE/DEAD viability/cytotoxicity kit (images were taken on a Nikon Eclipse Ti—S inverted fluorescent microscope). A NIH ImageJ was used to quantify cell viability.

Data set [4] in a line: In vivo subcutaneous implantation of hydrogel, histology. Details: species or system Wistar rats. The procedure: To test the in vivo persistence of the peptide, Wistar rats were subcutaneously injected with 200 μL CASP-K6 hydrogel (2% w/v). Because of the thixotropic nature of the hydrogel, it reconstituted post-injection in the subcutaneous pocket. At prescribed time intervals (1, 3, and 7 days), the rats were sacrificed and the dorsal skin covering the implant was removed for histological examination. Used was hematoxylin and eosin (H&E) FIGS. 15A-15B, and Masson's trichrome staining FIGS. 15C-15D) to analyze the tissue sections.
For in vivo subcutaneous implantations, NJIT-Rutgers animal care facility was used. Injected was ˜200 μL CASP-K6 hydrogels in the subcutaneous pocket (dorsal aspect) of female Wistar rats (˜250 g, Charles River) (four implants (n=4) per rat). At the specified time points (1 day, 3 day, and 7 day), the animals were sacrificed and regions around the implant were excised, fixed, and processed. Hematoxylin and eosin (H&E) and Masson's trichrome staining was used for histologic analysis.

For data set [5] the following is noted: cited from earlier work.

For “KKKKSLSLSLSLSLSLKKKK (CASP-K4) [cationic amphiphilic self-assembling peptide]”, in data set [1], the “storage modulus (G') at 1% strain” value was roughly 430 Pa.

“KKSLSLSLSLSLSLKK (CASP-K2) [cationic amphiphilic self-assembling peptide, previously reported as a multifunctional scaffold]”: the “storage modulus (G') at 1% strain” value in data set [1] was roughly 620 Pa.

“KKKKKKKKSLSLSLSLSLSLKKKKKKKK (CASP-K8) [cationic amphiphilic self-assembling peptide]”: the “storage modulus (G') at 1% strain” value in data set [1] is roughly 30 Pa. Moreover, in data set [2], the hydrogel formation entry is given as “failed to form a gel; also recorded: remained in solution”. Also, the “disruption of bacterial colonies / antibacterial activity” value in data set [3] is given as “very effective in disrupting the bacterial layer”.

Consider “Ac-KKKKKKSLSLSLSLSLSLKKKKKK-NH2 [CASP-K6]”, for which, in data set [1], the “storage modulus (G') at 1% strain” value is given as roughly 210 Pa. Moreover, the “storage modulus of hydrogel (rheometry)” value in data set [1] (strain not stated) was > 100 Pa and > 200 Pa. Also, the “shear strain at which the gel liquefied (G'<G'')” value in data set [1] (strain sweep) was greater than 30 % strain. Besides, the “disruption of bacterial colonies / antibacterial activity” value in data set [3] is listed as “very effective in disrupting the bacterial layer; also recorded: comparable antibacterial activity”. In addition, in the data set with NIH 3T3 fibroblasts, the “toxicity with respect to mammalian cells (cytocompatibility)” value is recorded as “low toxicity”. Besides, in data set [4] (rat, in vivo, sc), the “in vivo persistence” value is reported as “persists in vivo” and the “in vivo persistence of subcutaneous implant (remained observable)” value is recorded as “at least 7 days”. Also, the “local/systemic toxicity or mortality” value in data set [4] (subcutaneous implants in rats, up to 7 days) was “did not induce any local/systemic toxicity or mortality”.

LL-37: natural antimicrobial peptide: the “enzymatic degradation in vivo” value in data set [5] is listed as “susceptible to enzymatic degradation in vivo within a time period of hours”.
